7 compounds from patent US8846669B2, “Oxazolidinone derivative and medical composition containing same” (Legochem Biosciences, Inc., priority 2011, dated 2014) can be followed below.

Common to all, as to test: In vitro antibacterial activity, broth microdilution MIC90
Common to all, as to format: cell-based
For orientation: Broth dilution looks for growth in wells or tubes with falling amounts of substance.

For one experiment, the system named is Enterococcus faecalis. In outline:
(§1)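 Broth microdilution per CLSI M7-A5 guidelines, run against a 12-strain panel of staphylococci, enterococci and Moraxella catarrhalis. Final test compound concentrations spanned 0.063 to 128 μg/mL with 2.5% (V/V) DMSO as excipient; linezolid served as control.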

The test system of the next experiment is Enterococcus faecium. In outline:
as §1

Experiment [1] relates to Linezolid and Vancomycin Resistant Enterococcus faecalis. The gist of the method: as §1
Experiment [2] concerns Linezolid and Vancomycin Resistant Enterococcus faecium (strain 10). In outline:
as §1

In experiment [3] the test system is Linezolid and Vancomycin Resistant Enterococcus faecium (strain 11). In outline:
as §1

Experiment [4] relates to Methicillin Resistant Staphylococcus aureus. The gist of the method: as §1
For experiment [5], the system named is Methicillin Resistant Staphylococcus epidermidis. The gist of the method: as §1
The test system of another experiment is Moraxella catarrhalis. The gist of the method:
as §1

Another experiment relates to Staphylococcus aureus. In outline:
as §1

Experiment [6] deals with Staphylococcus epidermidis. The gist of the method:
as §1

The test system of experiment [7] is Vancomycin Resistant Enterococcus faecalis. The gist of the method: as §1
The subject of experiment [8] is Vancomycin Resistant Enterococcus faecium. In outline: as §1
The mark [9] stands for this setting: Enterococcus faecalis, strain 5, E. faecalis, read-out: MIC90.
Where [10] appears, read: Enterococcus faecium, strain 8, E. faecium, read-out: MIC90.
Setting [11] is: Enterococcus faecalis, strain 7, E. faecalis VanA LR, read-out: MIC90.
Where [12] appears, read: Enterococcus faecium, strain 10, E. faecium VanA LR, read-out: MIC90.
The mark [13] stands for this setting: Enterococcus faecium, strain 11, E. faecium VanA LR, read-out: MIC90.
[14] abbreviates: Staphylococcus aureus, strain 2, S. aureus MR, read-out: MIC90.
The mark [15] stands for this setting: Staphylococcus epidermidis, strain 4, S. epidermidis MR, read-out: MIC90.
[16] abbreviates: Moraxella catarrhalis, strain 12, M. catarrhalis, read-out: MIC90.
Setting [17] is: Staphylococcus aureus, strain 1, S. aureus, read-out: MIC90.
[18] abbreviates: Staphylococcus epidermidis, strain 3, S. epidermidis, read-out: MIC90.
Setting [19] is: Enterococcus faecalis, strain 6, E. faecalis VanA, read-out: MIC90.
Where [20] appears, read: Enterococcus faecium, strain 9, E. faecium VanA, read-out: MIC90.

Values after ≈ are worked out from the molar mass of the structure shown. Where two headings read alike, the source gives them in different places.

For `O=C1O[C@@H](COc2ccon2)CN1c1ccc(-c2ccc(C3=NOCCN3)nc2)c(F)c1` [Compound 68], the MIC90 is 1 µg/mL (≈ 2.28 µM) in the experiment with Enterococcus faecalis (strain 5, E. faecalis); 0.25 µg/mL (≈ 0.569 µM) against Enterococcus faecium (strain 8, E. faecium); >128 µg/mL in [1] (strain 7, E. faecalis VanA LR); >128 µg/mL in experiment [2] (strain 10, E. faecium VanA LR); >128 µg/mL in experiment [3] (strain 11, E. faecium VanA LR); 1 µg/mL (≈ 2.28 µM) in [4] (strain 2, S. aureus MR). For the same compound, the MIC90 is 2 µg/mL (≈ 4.55 µM) in experiment [5] (strain 4, S. epidermidis MR); >128 µg/mL against Moraxella catarrhalis (strain 12, M. catarrhalis); 0.5 µg/mL (≈ 1.14 µM) against Staphylococcus aureus (strain 1, S. aureus); 1 µg/mL (≈ 2.28 µM) in experiment [6] (strain 3, S. epidermidis); 2 µg/mL (≈ 4.55 µM) in experiment [7] (strain 6, E. faecalis VanA); 1 µg/mL (≈ 2.28 µM) in experiment [8] (strain 9, E. faecium VanA).
In the case of `CC(=O)NC[C@H]1CN(c2ccc(-c3ccc(N4CCN(C(=O)CO)C=N4)nc3)c(F)c2)C(=O)O1` [Compound 54], the MIC90 was found to be 0.063 µg/mL (≈ 0.134 µM) in the experiment with Enterococcus faecalis (Enterococcus faecalis); 0.25 µg/mL (≈ 0.531 µM) against Enterococcus faecium (Enterococcus faecium); 0.5 µg/mL (≈ 1.06 µM) in experiment [1] (Enterococcus faecalis); 0.5 µg/mL (≈ 1.06 µM) in experiment [2] (Enterococcus faecium); 0.5 µg/mL (≈ 1.06 µM) in [3] (Enterococcus faecium); 0.5 µg/mL (≈ 1.06 µM) in [4] (Staphylococcus aureus). Also, the MIC90 in [5] (Staphylococcus epidermidis) was 0.5 µg/mL (≈ 1.06 µM); in the experiment on Moraxella catarrhalis (Moraxella catarrhalis), 1 µg/mL (≈ 2.13 µM); against Staphylococcus aureus (Staphylococcus aureus), 0.25 µg/mL (≈ 0.531 µM); in experiment [6] (Staphylococcus epidermidis), 0.125 µg/mL (≈ 0.266 µM); in experiment [7] (Enterococcus faecalis), 0.063 µg/mL (≈ 0.134 µM); in experiment [8] (Enterococcus faecium), 0.063 µg/mL (≈ 0.134 µM). For the same compound, the “antibacterial activity against linezolid-resistant bacteria (in words)” value in [1] (Enterococcus faecalis and Enterococcus faecium which are resistant to linezolid) is given as “very high antibacterial activity”.
For the compound `CCN1CCN(c2ccc(-c3ccc(N4C[C@H](CNC(C)=O)OC4=O)cc3F)cn2)C=N1` [Compound 4], the MIC90 in the experiment with Enterococcus faecalis (Enterococcus faecalis) turned out to be 0.5 µg/mL (≈ 1.14 µM); with Enterococcus faecium (Enterococcus faecium) it was 0.5 µg/mL (≈ 1.14 µM); in experiment [1] (Enterococcus faecalis), 2 µg/mL (≈ 4.54 µM); in [2] (Enterococcus faecium) it was 2 µg/mL (≈ 4.54 µM); in [3] (Enterococcus faecium), 2 µg/mL (≈ 4.54 µM); in [4] (Staphylococcus aureus), 1 µg/mL (≈ 2.27 µM). For the same compound, the MIC90 in [5] (Staphylococcus epidermidis) is 1 µg/mL (≈ 2.27 µM); against Moraxella catarrhalis (Moraxella catarrhalis), 2 µg/mL (≈ 4.54 µM); in the experiment on Staphylococcus aureus (Staphylococcus aureus), 0.5 µg/mL (≈ 1.14 µM); in [6] (Staphylococcus epidermidis), 0.5 µg/mL (≈ 1.14 µM); in experiment [7] (Enterococcus faecalis) it was 0.5 µg/mL (≈ 1.14 µM); in [8] (Enterococcus faecium), 0.5 µg/mL (≈ 1.14 µM).
As to `COC(=O)NC[C@H]1CN(c2ccc(-c3ccc(N4C=NN(C(=O)CO)CC4)nc3)c(F)c2)C(=O)O1` [Compound 25], the MIC90 in the experiment on Enterococcus faecalis (Enterococcus faecalis) was determined as 0.5 µg/mL (≈ 1.03 µM); in the experiment on Enterococcus faecium (Enterococcus faecium) it was 0.25 µg/mL (≈ 0.514 µM); in [1] (Enterococcus faecalis), 4 µg/mL (≈ 8.22 µM); in experiment [2] (Enterococcus faecium), 4 µg/mL (≈ 8.22 µM); in experiment [3] (Enterococcus faecium), 2 µg/mL (≈ 4.11 µM); in experiment [4] (Staphylococcus aureus) it was 0.5 µg/mL (≈ 1.03 µM). Moreover, the MIC90 in experiment [5] (Staphylococcus epidermidis) was 1 µg/mL (≈ 2.06 µM); against Moraxella catarrhalis (Moraxella catarrhalis) it was 4 µg/mL (≈ 8.22 µM); in the experiment on Staphylococcus aureus (Staphylococcus aureus) it was 0.063 µg/mL (≈ 0.13 µM); in experiment [6] (Staphylococcus epidermidis), 0.25 µg/mL (≈ 0.514 µM); in [7] (Enterococcus faecalis), 0.5 µg/mL (≈ 1.03 µM); in experiment [8] (Enterococcus faecium), 0.5 µg/mL (≈ 1.03 µM).
With `COC(=O)NC[C@H]1CN(c2ccc(-c3ccc(C4=NOCCN4C)nc3)c(F)c2)C(=O)O1` [Compound 70], the MIC90 with Enterococcus faecalis (setting [9]) turned out to be 2 µg/mL (≈ 4.51 µM); in the experiment with Enterococcus faecium (setting [10]), 1 µg/mL (≈ 2.26 µM); in [1] (setting [11]) it was 8 µg/mL (≈ 18 µM); in [2] (setting [12]) it was 8 µg/mL (≈ 18 µM); in experiment [3] (setting [13]) it was 8 µg/mL (≈ 18 µM); in [4] (setting [14]), 2 µg/mL (≈ 4.51 µM). Also, the MIC90 in experiment [5] (setting [15]) was determined as 4 µg/mL (≈ 9.02 µM); in the experiment on Moraxella catarrhalis (setting [16]) it was 4 µg/mL (≈ 9.02 µM); in the experiment with Staphylococcus aureus (setting [17]), 1 µg/mL (≈ 2.26 µM); in experiment [6] (setting [18]), 1 µg/mL (≈ 2.26 µM); in [7] (setting [19]) it was 2 µg/mL (≈ 4.51 µM); in [8] (setting [20]) it was 1 µg/mL (≈ 2.26 µM).
Turning to `COC(=O)NC[C@H]1CN(c2ccc(-c3ccc(C4=NOCCN4)nc3)c(F)c2)C(=O)O1` [Compound 65], the MIC90 in the experiment with Enterococcus faecalis (setting [9]) was 0.5 µg/mL (≈ 1.16 µM); in the experiment on Enterococcus faecium (setting [10]) it was 0.5 µg/mL (≈ 1.16 µM); in experiment [1] (setting [11]), 4 µg/mL (≈ 9.32 µM); in experiment [2] (setting [12]), 4 µg/mL (≈ 9.32 µM); in [3] (setting [13]) it was 4 µg/mL (≈ 9.32 µM); in experiment [4] (setting [14]), 0.5 µg/mL (≈ 1.16 µM). Besides, the MIC90 was 1 µg/mL (≈ 2.33 µM) in experiment [5] (setting [15]); 2 µg/mL (≈ 4.66 µM) in the experiment on Moraxella catarrhalis (setting [16]); 0.5 µg/mL (≈ 1.16 µM) with Staphylococcus aureus (setting [17]); 0.5 µg/mL (≈ 1.16 µM) in experiment [6] (setting [18]); 0.5 µg/mL (≈ 1.16 µM) in experiment [7] (setting [19]); 0.5 µg/mL (≈ 1.16 µM) in experiment [8] (setting [20]).
Turning to `NC(=O)N1CCN(c2ccc(-c3ccc(N4C[C@H](Cn5ccnn5)OC4=O)cc3F)cn2)C=N1` [Compound 33], the MIC90 was determined as 0.25 µg/mL (≈ 0.537 µM) with Enterococcus faecalis (Enterococcus faecalis); 0.125 µg/mL (≈ 0.269 µM) in the experiment with Enterococcus faecium (Enterococcus faecium); 2 µg/mL (≈ 4.3 µM) in experiment [1] (Enterococcus faecalis); 2 µg/mL (≈ 4.3 µM) in experiment [2] (Enterococcus faecium); 2 µg/mL (≈ 4.3 µM) in experiment [3] (Enterococcus faecium); 1 µg/mL (≈ 2.15 µM) in experiment [4] (Staphylococcus aureus). The MIC90 in [5] (Staphylococcus epidermidis) was found to be 1 µg/mL (≈ 2.15 µM); against Moraxella catarrhalis (Moraxella catarrhalis), 2 µg/mL (≈ 4.3 µM); with Staphylococcus aureus (Staphylococcus aureus) it was 0.25 µg/mL (≈ 0.537 µM); in experiment [6] (Staphylococcus epidermidis), 0.25 µg/mL (≈ 0.537 µM); in experiment [7] (Enterococcus faecalis) it was 0.25 µg/mL (≈ 0.537 µM); in experiment [8] (Enterococcus faecium) it was 0.25 µg/mL (≈ 0.537 µM).

The term MIC90 denotes the lowest concentration that inhibits either 90% of growth or 90% of the strains tested, depending on the study.
